In the assay the target is T1, human GLP-1R (Homo sapiens, UniProt P43220).
T1 construct: host or cells: HEK293
T1 sequence (P43220 24-463): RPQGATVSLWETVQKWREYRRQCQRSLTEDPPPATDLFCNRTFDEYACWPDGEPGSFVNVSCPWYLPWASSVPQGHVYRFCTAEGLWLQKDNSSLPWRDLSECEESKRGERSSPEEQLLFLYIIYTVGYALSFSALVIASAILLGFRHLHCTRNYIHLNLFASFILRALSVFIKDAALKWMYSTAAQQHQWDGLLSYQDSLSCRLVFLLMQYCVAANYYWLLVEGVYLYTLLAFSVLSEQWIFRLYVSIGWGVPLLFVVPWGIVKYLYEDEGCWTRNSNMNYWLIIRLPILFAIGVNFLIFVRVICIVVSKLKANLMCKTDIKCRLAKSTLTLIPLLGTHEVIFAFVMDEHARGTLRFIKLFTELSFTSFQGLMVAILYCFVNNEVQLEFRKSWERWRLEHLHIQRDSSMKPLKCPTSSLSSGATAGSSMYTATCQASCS
Description: GLP-1R cAMP assay (Example B1a, HTRF, 30 min at room temperature). The class given is cell-based. The following applies: cAMP accumulation in HEK293 expressing human GLP-1R, no BETP, 30 min room temperature (Method B1a, compounds ID 1-609), Table 1; read-out: EC50. The method, then:
Assay was carried out with HEK293 expressing human GLP-1R using HTRF assay, developed by Wuxi Apptec. The method is a competitive assay between native cAMP produced by the cells and exogenous cAMP labeled with a proprietary dye d2. The tracer binding is visualized by a mAb anti-cAMP labeled with Cryptate. The signal (i.e. energy transfer) is inversely proportional to the concentration of CAMP in either standard or experimental sample. Compounds were tested in the absence of BETP. Ten microliter of cell suspension in assay buffer (5 mM HEPES, 500 μM IBMX, 0.1% BSA) were added to each well (1,000 cells per well) in a low volume 384-well plate for the assay. Serially diluted compounds were added in 100 nL volume to duplicate wells, by Labcyte Echo. GLP-1 (7-37) was used as positive control. Assay plate was incubated for 30 minutes at room temperature. Stock of cAMP Detection Solution was prepared by mixing 38 parts of cAMP lysis buffer, 1 part of cAMP-D2, 1 part of anti-cAMP cryptate reagent (Cisbio #62AM4PEJ). Ten microliter of the cAMP Detection Solution was added to each well, and the assay plate was incubated for 1 hour at room temperature in the dark. Plates were read on Envision plate reader. The data were analyzed by ScreenUltra in Dotmatics, with % activation expressed using following formula: (Well data−negative control)/(postive control−negative control)*100. Dose response curves were plotted and EC50 values calculated by non-linear regression using 4-parameter fit.
As for `CC[C@@H]1C[C@@]1(c1noc(=O)[nH]1)n1c(C(=O)N2[C@@H]3CC[C@H]2c2c(nn(-c4cc(C)c(F)c(C)c4)c2-n2ccn(-c4ccc5c(cnn5C)c4F)c2=O)C3)cc2cc([C@H]3CCOC(C)(C)C3)ccc21` [Compound 435, 3-[(1R,2R)-1-[5-[(4S)-2,2-dimethyltetrahydropyran-4-yl]-2-[(1S,8R)-4-(4-fluoro-3,5-dimethyl-phenyl)-3-[3-(4-fluoro-1-methyl-indazol-5-yl)-2-oxo-imidazol-1-yl]-4,5,11-triazatricyclo[6.2.1.02,6]undeca-2,5-diene-11-carbonyl]indol-1-yl]-2-ethyl-cyclopropyl]-4H-1,2,4-oxadiazol-5-one], the EC50 (in general, the concentration at which the effect is half-maximal) was 3.87 µM.

As to `Cc1cc(-n2nc3c(c2-n2ccn(-c4ccc5c(cnn5C)c4F)c2=O)[C@@H]2CC[C@H](C3)N2C(=O)c2cc3cc([C@H]4CCOC(C)(C)C4)ccc3n2C2(c3noc(=O)[nH]3)CCC2)cc(C)c1F` [Compound 134, 3-[1-[5-[(4S)-2,2-dimethyltetrahydropyran-4-yl]-2-[(1S,8R)-4-(4-fluoro-3,5-dimethyl-phenyl)-3-[3-(4-fluoro-1-methyl-indazol-5-yl)-2-oxo-imidazol-1-yl]-4,5,11-triazatricyclo[6.2.1.02,6]undeca-2,5-diene-11-carbonyl]indol-1-yl]cyclobutyl]-4H-1,2,4-oxadiazol-5-one], the EC50 was > 10 µM.

With `Cc1cc(-n2nc3c(c2-n2ccn(-c4ccc5c(cnn5C)c4F)c2=O)[C@@H]2CC[C@H](C3)N2C(=O)c2cc3cc([C@H]4CCOC4(C)C)ccc3n2[C@@]2(c3noc(=O)[nH]3)C[C@@H]2C)cc(C)c1F` [Compound 419, 3-[(1S,2S)-1-[5-[(3R)-2,2-dimethyltetrahydrofuran-3-yl]-2-[(1S,8R)-4-(4-fluoro-3,5-dimethyl-phenyl)-3-[3-(4-fluoro-1-methyl-indazol-5-yl)-2-oxo-imidazol-1-yl]-4,5,11-triazatricyclo[6.2.1.02,6]undeca-2,5-diene-11-carbonyl]indol-1-yl]-2-methyl-cyclopropyl]-4H-1,2,4-oxadiazol-5-one], the EC50 was ≥ 10 µM.

For `Cc1cc(-n2nc3c(c2-n2ccn(-c4ccc5c(cnn5C)c4F)c2=O)[C@@H]2CC[C@H](C3)N2C(=O)c2cc3c(OC4CCOC(C)(C)C4)nccc3n2[C@@]2(c3noc(=O)[nH]3)C[C@@H]2C)cc(C)c1F` (stereo partly drawn) [Compound 232, 3-[(1S,2S)-1-[4-(2,2-dimethyltetrahydropyran-4-yl)oxy-2-[(1S,8R)-4-(4-fluoro-3,5-dimethyl-phenyl)-3-[3-(4-fluoro-1-methyl-indazol-5-yl)-2-oxo-imidazol-1-yl]-4,5,11-triazatricyclo[6.2.1.02,6]undeca-2,5-diene-11-carbonyl]pyrrolo[3,2-c]pyridin-1-yl]-2-methyl-cyclopropyl]-4H-1,2,4-oxadiazol-5-one], the EC50 was > 10 µM.

Consider `Cc1cc(-n2nc3c(c2-n2ccn(-c4ccc5c(cnn5C)c4F)c2=O)[C@@H]2CCC[C@H](C3)N2C(=O)c2cc3cc([C@H]4CCOC5(CC5)C4)ccc3n2[C@@]2(c3noc(=O)[nH]3)C[C@@H]2C)cc(C)c1F` [Compound 509, 3-((1S,2S)-1-(2-((4S,8R)-3-(3-(4-fluoro-1-methyl-1H-indazol-5-yl)-2-oxo-2,3-dihydro-1H-imidazol-1-yl)-2-(4-fluoro-3,5-dimethylphenyl)-4,5,6,7,8,9-hexahydro-2H-4,8-epiminocycloocta [c]pyrazole-10-carbonyl)-5-((S)-4-oxaspiro[2.5]octan-7-yl)-1H-indol-1-yl)-2-methylcyclopropyl)-1,2,4-oxadiazol-5 (4H)-one], for which the EC50 was 0.134 µM.

As to `Cc1cc(-n2nc3c(c2-n2ccn(-c4ccc5c(cnn5C)c4F)c2=O)[C@@H]2CC[C@H](C3)N2C(=O)c2cc3cc([C@H]4CCOC5(CC5)C4)ccc3n2[C@]2(c3noc(=O)[nH]3)C[C@H]2C)cc(C)c1F` [Compound 519, 3-[(1R,2R)-1-[2-[(1S,8R)-4-(4-fluoro-3,5-dimethyl-phenyl)-3-[3-(4-fluoro-1-methyl-indazol-5-yl)-2-oxo-imidazol-1-yl]-4,5,11-triazatricyclo[6.2.1.02,6]undeca-2,5-diene-11-carbonyl]-5-[(7S)-4-oxaspiro[2.5]octan-7-yl]indol-1-yl]-2-methyl-cyclopropyl]-4H-1,2,4-oxadiazol-5-one], the EC50 was ≥ 10 µM.

Consider `Cc1cc(-n2nc3c(c2-c2nnc(-c4ccc5c(cnn5C)c4F)o2)[C@H](C)N(C(=O)c2cc4cc([C@H]5CCOC(C)(C)C5)ccc4n2[C@@]2(c4noc(=O)[nH]4)C[C@@H]2C)CC3)cc(C)c1F` [Compound 5, 3-((1S,2S)-1-(5-((S)-2,2-dimethyltetrahydro-2H-pyran-4-yl)-2-((S)-3-(5-(4-fluoro-1-methyl-1H-indazol-5-yl)-1,3,4-oxadiazol-2-yl)-2-(4-fluoro-3,5-dimethylphenyl)-4-methyl-4,5,6,7-tetrahydro-2H-pyrazolo[4,3-c]pyridine-5-carbonyl)-1H-indol-1-yl)-2-methylcyclopropyl)-1,2,4-oxadiazol-5 (4H)-one], for which the EC50 is > 10 µM.

As for `Cc1cc(-n2nc3c(c2-n2ccn(-c4ccc5cnncc5c4F)c2=O)[C@@H]2CC[C@H](C3)N2C(=O)c2cc3cc([C@H]4CCOC(C)(C)C4)ccc3n2[C@@]2(c3noc(=O)[nH]3)C[C@@H]2C)cc(C)c1F` [Compound 410, 3-((1S,2S)-1-(5-((S)-2,2-dimethyltetrahydro-2H-pyran-4-yl)-2-((4S,7R)-2-(4-fluoro-3,5-dimethylphenyl)-3-(3-(5-fluorophthalazin-6-yl)-2-oxo-2,3-dihydro-1H-imidazol-1-yl)-2,4,5,6,7,8-hexahydro-4,7-epiminocyclohepta [c]pyrazole-9-carbonyl)-1H-indol-1-yl)-2-methylcyclopropyl)-1,2,4-oxadiazol-5 (4H)-one], the EC50 is 0.0147 µM.

On to `Cc1cc(-n2nc3c(c2-n2ccn(-c4ccc5c(cnn5C)c4F)c2=O)[C@@H]2CCC[C@H](C3)N2S(=O)(=O)c2cc3cc([C@H]4CCOC5(CC5)C4)ccc3n2[C@@]2(c3noc(=O)[nH]3)C[C@@H]2C)cc(C)c1F` [Compound 608, 3-[(1S,2S)-1-[2-[[(1S,8R)-4-(4-fluoro-3,5-dimethyl-phenyl)-3-[3-(4-fluoro-1-methyl-indazol-5-yl)-2-oxo-imidazol-1-yl]-4,5,12-triazatricyclo[6.3.1.02,6]dodeca-2,5-dien-12-yl]sulfonyl]-5-[(7S)-4-oxaspiro[2.5]octan-7-yl]indol-1-yl]-2-methyl-cyclopropyl]-4H-1,2,4-oxadiazol-5-one], for which the half-maximal effective concentration (EC50) is ≥ 10 µM.

As for `Cc1cc(-n2nc3c(c2-n2ccn(-c4ccc5c(cnn5C)c4F)c2=O)[C@@H]2CC[C@H](C3)N2C(=O)c2cc3cc([C@H]4CCOC5(CCC5)C4)ccc3n2[C@@]2(c3noc(=O)[nH]3)C[C@@H]2C)cc(C)c1F` [Compound 426, 3-((1S,2S)-1-(2-((4S,7R)-3-(3-(4-fluoro-1-methyl-1H-indazol-5-yl)-2-oxo-2,3-dihydro-1H-imidazol-1-yl)-2-(4-fluoro-3,5-dimethylphenyl)-2,4,5,6,7,8-hexahydro-4,7-epiminocyclohepta [c]pyrazole-9-carbonyl)-5-((S)-5-oxaspiro[3.5]nonan-8-yl)-1H-indol-1-yl)-2-methylcyclopropyl)-1,2,4-oxadiazol-5(4H)-one], the EC50 is 0.134 µM.
